In patent publication US20060276464A1, “Diarylsulfone sulfonamides and use thereof” (Wyeth, priority 2005, published 2006):
Like-named read-outs stand apart in the source and are kept apart here.

Biological target: T1, SFRP-1 (Homo sapiens, UniProt Q8N474)
T1 sequence (Q8N474 32-314): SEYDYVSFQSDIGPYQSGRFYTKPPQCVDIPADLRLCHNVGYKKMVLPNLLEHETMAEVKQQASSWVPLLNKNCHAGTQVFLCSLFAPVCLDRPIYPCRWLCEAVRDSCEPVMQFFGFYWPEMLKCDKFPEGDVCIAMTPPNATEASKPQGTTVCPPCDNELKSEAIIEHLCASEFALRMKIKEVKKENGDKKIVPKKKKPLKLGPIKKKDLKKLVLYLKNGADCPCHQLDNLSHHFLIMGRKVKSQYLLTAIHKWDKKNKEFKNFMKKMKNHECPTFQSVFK
Test: Cell-based assay for in vitro measurement of SFRP-1/SARP2 antagonist activity (U2OS cells co-transfected with 16x TCF-tk-Luciferase reporter, Wnt and hSFRP-1);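 further: U2OS cells co-transfected with a TCF-tk luciferase reporter, a Wnt vector, hSFRP-1 or empty vector and CMV-βgal, luciferase luminescence read in cell lysates alongside βgal activity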
Settings: for fold induction at 15 µM / fold induction at 10 µM / fold induction at 20 µM / fold induction at 30 µM: U2OS; for fold induction at 10 µM: read-out: Fold Induction with SFRP-1, U2OS cells, single dose 10 μM, luciferase reporter, fold induction over SFRP-1 control

[1] = read-out: Fold Induction with SFRP-1, Conc 15 μM, with SFRP-1, fold induction over SFRP-1 control, single dose
[2] = read-out: Fold Induction without SFRP-1, Conc 15 μM, without SFRP-1, single dose
[3] = read-out: Fold Induction with SFRP-1, Conc 15 μM, single dose, luciferase reporter, fold induction over SFRP-1 control, cells with SFRP-1
[4] = read-out: Fold Induction without SFRP-1, Conc 15 μM, single dose, luciferase reporter, cells without SFRP-1 (specificity control)

| SMILES | fold induction at 15 µM [1] | fold induction at 15 µM [2] | further results |
| --- | --- | --- | --- |
| Cc1ccc(S(=O)(=O)c2ccccc2)cc1S(=O)(=O)NC1CCc2ccccc21 (centres unmarked) [Example 415, N-(2,3-dihydro-1H-inden-1-yl)-2-methyl-5-(phenylsulfonyl)benzenesulfonamide] | 1.5 | 1.2 | – |
| Cc1ccc(S(=O)(=O)c2ccc(F)cc2)cc1S(=O)(=O)NCCCN1CCCC1 [Example 178, 5-[(4-fluorophenyl)sulfonyl]-2-methyl-N-(3-pyrrolidin-1-ylpropyl)benzenesulfonamide] | 2.8 | 1.5 | – |
| Cc1ccc(S(=O)(=O)c2ccccc2)cc1S(=O)(=O)NCCCN1CCCC1 [Example 220, 2-methyl-5-(phenylsulfonyl)-N-(3-pyrrolidin-1-ylpropyl)benzenesulfonamide] | 3.6 | 1.8 | – |
| CCc1ccc(S(=O)(=O)c2ccccc2)cc1S(=O)(=O)N1CCN(CCN(CC)CC)CC1 [Example 286, N,N-diethyl-N-[2-(4-{[2-ethyl-5-(phenylsulfonyl)phenyl]sulfonyl}piperazin-1-yl)ethyl]amine] | 2 | 1.3 | – |
| Cc1ccc(S(=O)(=O)c2ccc(C(C)C)cc2)cc1S(=O)(=O)NCCCn1ccnc1 [Example 338, N-[3-(1H-imidazol-1-yl)propyl]-5-[(4-isopropylphenyl)sulfonyl]-2-methylbenzenesulfonamide] | 1.2 | 1 | – |
| O=S(=O)(NCCc1ccccn1)c1cc(S(=O)(=O)c2ccccc2)ccc1C1CCCCC1 [Example 459, 2-cyclohexyl-5-(phenylsulfonyl)-N-(2-pyridin-2-ylethyl)benzenesulfonamide] | 1.6 | 0.9 | – |
| Cc1c(S(=O)(=O)NCCCn2ccnc2)cccc1S(=O)(=O)c1ccccc1 [Example 493, N-[3-(1H-imidazol-1-yl)propyl]-2-methyl-3-(phenylsulfonyl)benzenesulfonamide] | – | – | fold induction at 15 µM [3]: 1; fold induction at 15 µM [4]: 1.1 |
| CCN(CC)CCCNS(=O)(=O)c1cc(S(=O)(=O)c2ccc(F)cc2)ccc1C [Example 176, N-[3-(diethylamino)propyl]-5-[(4-fluorophenyl)sulfonyl]-2-methylbenzenesulfonamide] | 2.6 | 1.3 | – |
| CC(C)(C)c1ccc(C(=O)NCCNS(=O)(=O)c2cc(S(=O)(=O)c3ccccc3)ccc2C(F)(F)F)cc1 [Example 776, 4-tert-Butyl-N-[2-({[5-(phenylsulfonyl)-2-(trifluoromethyl)phenyl]sulfonyl}amino)ethyl]benzamide] | – | – | fold induction at 10 µM: 0.9 |
| Cc1ccc(S(=O)(=O)c2ccc(Cl)cc2)cc1S(=O)(=O)NC1Cc2ccccc2C1 [Example 255, 5-[(4-chlorophenyl)sulfonyl]-N-2,3-dihydro-1H-inden-2-yl-2-methylbenzenesulfonamide] | – | – | fold induction at 20 µM (read-out: Fold Induction with SFRP-1, Conc 20 μM, with SFRP-1, fold induction over SFRP-1 control, single dose): 2.6; fold induction at 20 µM (read-out: Fold Induction without SFRP-1, Conc 20 μM, without SFRP-1, single dose): 1.1 |
| Cc1cc(S(=O)(=O)c2ccccc2)cc(S(=O)(=O)NCCn2ccnc2)c1C [Example 347, N-[2-(1H-imidazol-1-yl)ethyl]-2,3-dimethyl-5-(phenylsulfonyl)benzenesulfonamide] | 2.9 | 1.1 | – |
| COc1ccc(S(=O)(=O)c2ccccc2)cc1S(=O)(=O)NCCc1ccccc1F [Example 156, N-[2-(2-fluorophenyl)ethyl]-2-methoxy-5-(phenylsulfonyl)benzenesulfonamide] | 1.4 | 1.4 | – |
| O=S(=O)(NCCCn1ccnc1)c1cc(S(=O)(=O)c2ccccc2)ccc1Cl [Example 336, 2-chloro-N-[3-(1H-imidazol-1-yl)propyl]-5-(phenylsulfonyl)benzenesulfonamide] | 2.8 | 1 | – |
| Cc1ccc(S(=O)(=O)c2ccccc2)cc1S(=O)(=O)NCCc1c[nH]c2ccccc12 [Example 294, N-[2-(1H-indol-3-yl)ethyl]-2-methyl-5-(phenylsulfonyl)benzenesulfonamide] | 2.3 | 1.5 | – |
| O=S(=O)(NCCc1ccncc1)c1cccc(S(=O)(=O)c2ccccc2)c1 [Example 187, 3-(phenylsulfonyl)-N-(2-pyridin-4-ylethyl)benzenesulfonamide] | – | – | fold induction at 30 µM (read-out: Fold Induction with SFRP-1, Conc 30 μM, with SFRP-1, fold induction over SFRP-1 control, single dose): 1.9; fold induction at 30 µM (read-out: Fold Induction without SFRP-1, Conc 30 μM, without SFRP-1, single dose): 1 |
| Cc1ccc(S(=O)(=O)c2ccccc2)cc1S(=O)(=O)NC1CCN(C(=O)NC2CCCCC2)CC1 [Example 491, N-cyclohexyl-4-({[2-methyl-5-(phenylsulfonyl)phenyl]sulfonyl}amino)piperidine-1-carboxamide] | – | – | fold induction at 15 µM [3]: 1.1; fold induction at 15 µM [4]: 1 |
| COCCNS(=O)(=O)c1cc(S(=O)(=O)c2ccccc2)ccc1C [Example 217, N-(2-methoxyethyl)-2-methyl-5-(phenylsulfonyl)benzenesulfonamide] | 2.5 | 1 | – |
| Cc1ccc(S(=O)(=O)c2ccc(C)c(S(=O)(=O)NC[C@@H](C)c3ccccc3)c2)cc1 [Example 264, 2-methyl-5-[(4-methylphenyl)sulfonyl]-N-[(2S)-2-phenylpropyl]benzenesulfonamide] | 1.1 | 0.9 | Fold Induction with SFRP-1 (Conc 15 μM, with SFRP-1, fold induction over SFRP-1 control, single dose): 1.7 fold |
| CC(C)(C)c1ccc(S(=O)(=O)N2CCC(NS(=O)(=O)c3cc(S(=O)(=O)c4ccccc4)ccc3C(F)(F)F)CC2)cc1 [Example 748, N-{1-[(4-tert-butylphenyl)sulfonyl]piperidin-4-yl}-5-(phenylsulfonyl)-2-(trifluoromethyl)benzenesulfonamide] | – | – | fold induction at 10 µM: 2.8 |
| CC(=O)N1CCC(NS(=O)(=O)c2cc(S(=O)(=O)c3ccccc3)ccc2C)CC1 [Example 479, N-(1-acetylpiperidin-4-yl)-2-methyl-5-(phenylsulfonyl)benzenesulfonamide] | 2.1 | 1.1 | – |
| COc1ccc(S(=O)(=O)c2ccccc2)cc1S(=O)(=O)NCCCN(C)C [Example 239, N-[3-(dimethylamino)propyl]-2-methoxy-5-(phenylsulfonyl)benzenesulfonamide] | 1.2 | 1 | – |
| COc1ccc(S(=O)(=O)c2ccccc2)cc1S(=O)(=O)N[C@H]1C[C@@H]1c1ccccc1 [Example 270, 2-methoxy-N-[(1S,2R)-2-phenylcyclopropyl]-5-(phenylsulfonyl)benzenesulfonamide] | 1.5 | 1.2 | – |
| Cc1ccc(S(=O)(=O)c2ccc(N=[N+]=[N-])cc2)cc1S(=O)(=O)NCCCn1ccnc1 [Example 293, 5-[(4-azidophenyl)sulfonyl]-N-[3-(1H-imidazol-1-yl)propyl]-2-methylbenzenesulfonamide] | 2.5 | 0.9 | – |
| Cc1cc(C)cc(S(=O)(=O)c2ccc(C(C)C)c(S(=O)(=O)NCCc3ccccn3)c2)c1 [Example 454, 5-[(3,5-dimethylphenyl)sulfonyl]-2-isopropyl-N-(2-pyridin-2-ylethyl)benzenesulfonamide] | 1.7 | 1.1 | – |
| Cc1ccc(S(=O)(=O)c2ccccc2C)cc1S(=O)(=O)NCCc1ccccn1 [Example 430, 2-methyl-5-[(2-methylphenyl)sulfonyl]-N-(2-pyridin-2-ylethyl)benzenesulfonamide] | 1.7 | 0.8 | – |
| O=S(=O)(NC1CCOCC1)c1cc(S(=O)(=O)c2ccc(F)cc2)ccc1Cl [Example 622, 2-chloro-5-[(4-fluorophenyl)sulfonyl]-N-(tetrahydro-2H-pyran-4-yl)benzenesulfonamide] | – | – | fold induction at 15 µM [3]: 2.7; fold induction at 15 µM [4]: 1.1 |
| Cc1cc(S(=O)(=O)c2ccccc2)cc(S(=O)(=O)NC2CCOCC2)c1C [Example 350, 2,3-dimethyl-5-(phenylsulfonyl)-N-(tetrahydro-2H-pyran-4-yl)benzenesulfonamide] | 1.8 | 1.3 | – |
| Cc1ccc(S(=O)(=O)c2ccccc2)cc1S(=O)(=O)NCCCN1CCCC1=O [Example 212, 2-methyl-N-[3-(2-oxopyrrolidin-1-yl)propyl]-5-(phenylsulfonyl)benzenesulfonamide] | 2 | 0.9 | – |
| Cc1ccc(S(=O)(=O)c2ccc(F)cc2)cc1S(=O)(=O)NCCN1CCCCC1 [Example 166, 5-[(4-fluorophenyl)sulfonyl]-2-methyl-N-(2-piperidin-1-ylethyl)benzenesulfonamide] | 2 | 1.1 | – |
| COc1ccc(S(=O)(=O)c2ccccc2)cc1S(=O)(=O)NCCCn1ccnc1 [Example 242, N-[3-(1H-imidazol-1-yl)propyl]-2-methoxy-5-(phenylsulfonyl)benzenesulfonamide] | 2.3 | 1.2 | – |
